Test results as given in patent US20120004129A1, “BIOMARKERS FOR INHIBITORS WITH ANTI-ANGIOGENIC ACTIVITY” (Merck Patent GmbH, priority 2008, published 2012).

B1: DI-17E6: antibody (CAS No: 1105038-73-0) having the biological characteristics of monoclonal mouse antibody 17E6, inhibits the αv-integrin subunit; improved immunogenicity (antibody, chains of the INN, looked up, V domains shown)
VH: QVQLQQSGGELAKPGASVKVSCKASGYTFSSFWMHWVRQAPGQGLEWIGYINPRSGYTEYNEIFRDKATMTTDTSTSTAYMELSSLRSEDTAVYYCASFLGRGAMDYWGQGTTVTVSS
VL: DIQMTQSPSSLSASVGDRVTITCRASQDISNYLAWYQQKPGKAPKLLIYYTSKIHSGVPSRFSGSGSGTDYTFTISSLQPEDIATYYCQQGNTFPYTFGQGTKVEIK

Tests used:
HUVEC = experiment: Gene expression profiles of HUVEC after drug treatment (Affymetrix microarrays); assay type: cell-based, human; settings: drug-treated vs non-treated or control-treated cells, filtered for secreted candidates
From the text: (§1) Gene expression profiles were generated from experiments with each condition being tested in triplicates. For this, RNA was extracted from treated and control cells and hybridized to genome-wide Affymetrix oligonucleotide microarrays to generate gene expression profiles. After preprocessing with the GCRMA algorithm (Wu Z, Journal American Statistical Association 2004; 99: 909-917), Affymetrix GeneChip data were filtered to exclude probe sets with low variability, low signal or poor probe annotation. Genes were specifically filtered to obtain secreted candidates that might be detectable in body fluids in humans and could be monitored in a non-invasive way in patients.

MCP-1 = MCP-1 in HUVEC supernatants by Luminex; assay type: cell-based, human; settings: vitronectin-coated dishes, 6 h to 72 h
Experimental: (§2) Since secreted biomarkers are relevant, the individual candidates were analysed in supernatants of integrin-inhibitor treated cells. HUVEC were treated either DI-17E6 or cilengitide. After different times, culture supernatants were collected and analysed for different biomarker candidates by Western blotting, ELISA or Luminex. Drug-induced biomarker regulation was evaluated in comparison to control cells.
Culture supernatants were collected analysed for MCP-1 by Luminex. […] B) Regulation of MCP-1 in response to cilengitide (FIG. 5).

ERK1/2 = experiment: Western blot of integrin signalling in HUVEC plated on vitronectin: MAPK (ERK1/2); assay type: cell-based, human; settings: for phosphorylation of MAPK: HUVEC, Western blot, following treatment
Experimental: as §1, with “To identify biomarkers associated with treatment, HUVEC were treated with cilengitide or DI-17E6. […] Gene expression” for “Gene expression”, “in patients. […] Genes which show under the given condition an extraordinary response / response change/responsiveness are underlined.” for “in patients.”
(§3) Besides growth factor stimulation, integrin-mediated adhesion to the extracellular matrix is important to promote cell proliferation, survival, and migration. Upon integrin ligation a wide range of intracellular signaling events are induced, including activation of Ras, MAPK, FAK, Src, Rac/Rho/cdc42 GTPases. To support survival of endothelial cells during angiogenesis, integrins alpha(V) beta(3)/(5) together with FAK are required for a sustained activation of the MAPK cascade (i.e. ERK1/2). […] After 24 h of treatment, cell lysates were prepared and analysed by Western blotting. Effects on signaling pathways were evaluated by comparing the ratio of phosphorylated to total levels of the respective signaling molecule in order to account for potential effects arising from cell detachment.

ADAMTS1 = ADAMTS1 protein in HUVEC supernatants by Western blotting; assay type: cell-based, human; settings: vitronectin-coated dishes, 6 h to 72 h, vs control cells
Experimental: as §2
Culture supernatants were collected analysed for ADAMTS1 by Western blotting.
HUVECs were cultured o/n in vitronectin-coated dishes and incubated with different concentration of cilengitide for 6 h to 72 h. Culture supernatants were collected analysed for ADAMTS1 by Western blotting. A) Cilengitide mediated regulation of ADAMTS1 (65 kD and 85 kD). (FIG. 3).

STC-1 = STC-1 protein in HUVEC supernatants by Western blotting; assay type: cell-based, human; settings: vitronectin-coated dishes
Experimental: as §2
Culture supernatants were collected analysed for STC-1 by Western blotting. […] B) Regulation of STC-1 in response to cilengitide (FIG. 4).
(§4) HUVECs were cultured o/n in vitronectin-coated dishes and incubated with different concentration of Sutent or Sorafenib for 6 h to 48 h. Culture supernatants were collected analysed for STC-1 by Western blotting. A) Regulation of STC-1 in response to Sutent. B) Regulation of STC-1 in response to Sorafenib (FIG. 10).

IL-8 = IL-8 in HUVEC supernatants by Luminex; assay type: cell-based, human; settings: vitronectin-coated dishes
Experimental: as §2
Culture supernatants were collected analysed for IL-8 by Luminex. […] B) Regulation of IL-8 in response to cilengitide (FIG. 6).
as §4, with “IL-8” for “STC-1”, “Luminex.” for “Western blotting.”, “12).” for “10).”

activin A = experiment: Activin A in HUVEC supernatants by ELISA; assay type: cell-based, human; settings: vitronectin-coated dishes, 6 h to 72 h
Experimental: as §2
Culture supernatants were collected analysed for activin A by ELISA. […] B) Regulation of activin A in response to cilengitide (FIG. 9).

PDGF-BB = PDGF-BB in HUVEC supernatants by ELISA; assay type: cell-based, human; settings: vitronectin-coated dishes, 6 h to 72 h
Experimental: as §2
Culture supernatants were collected analysed for PDGF-BB by ELISA. […] B) Regulation of PDFG-BB in response to cilengitide (FIG. 7).

EDN1 = EDN1 in HUVEC supernatants by ELISA; assay type: cell-based, human; settings: vitronectin-coated dishes
Experimental: as §2
Culture supernatants were collected analysed for EDN1 by ELISA. […] B) Regulation of EDN1 in response to cilengitide (FIG. 8).
as §4, with “EDN1” for “STC-1”, “ELISA.” for “Western blotting.”, “11).” for “10).”

FAK = experiment: Western blot of integrin signalling in HUVEC plated on vitronectin: FAK; assay type: cell-based, human; settings: for phosphorylation of FAK: HUVEC, Western blot, following treatment
Experimental: as §1, with “To identify biomarkers associated with treatment, HUVEC were treated with cilengitide or DI-17E6. […] Gene expression” for “Gene expression”, “in patients. […] Genes which show under the given condition an extraordinary response / response change/responsiveness are underlined.” for “in patients.”
as §3

[1] = phase II trial; cited from earlier work
[2] = test system: Xenograft models of colon, breast, and non-small cell lung cancer (NSCLC); settings: cited from earlier work
[3] = phase III, cytokine-refractory advanced renal carcinoma patients; cited from earlier work
CRP = settings: DI-17E6-treated vs placebo-treated animals, 6 days
Experimental: Absolute concentrations of different proteins were measured by Luminex by comparing to respective standards.
Plasma was collected and analysed for CRP and IL-6 by Luminex. A) Regulation of CRP. B) Regulation of IL-6 (FIG. 14).

IL-6 = experiment: Plasma IL-6 by Luminex in monkeys with matrigel plugs; assay type: in vivo, Cynomolgus monkeys; settings: DI-17E6-treated vs placebo-treated animals, 6 days
From the text: A) Regulation of CRP. B) Regulation of IL-6 (FIG. 14).

[4] = test system: angiogenesis in matrigel plugs; experiment: bFGF-induced angiogenesis in matrigel plugs in monkeys (hemoglobin content); assay type: in vivo, Cynomolgus monkeys; settings: single i.v. infusion at 100, 30, 10, or 3 mg/kg; after 6 days; 5 μg/mL bFGF
Experimental: In this model, angiogenesis was induced in matrigel plugs by the angiogenic growth factor bFGF. Matrigel plugs containing bFGF were implanted subcutan into the abdomen of healthy Cynomologus monkeys, and the animals were injected with DI-17E6 i.v. at different doses immediately thereafter. Evaluation of angiogenesis was carried out after matrigel implantation by quantification of the hemoglobin content in the matrigel plugs. Each condition was tested in different animals implanted with matrigel plugs.
Angiogenesis was induced in subcutaneous matrigel implants containing 5 μg/mL of bFGF in Cynomolgus monkeys. […] After 6 days, angiogenesis was quantified by measuring the hemoglobin content in the matrigel plugs. * denotes a p-value <0.05 and ** denotes a p-value <0.01 (FIG. 13).

[5] = HUVEC on vitronectin, 24 h, DI-17E6 0.01 to 10 μg/mL, cilengitide 0.01 to 10 μM
[6] = integrin inhibitors, 24 h to 72 h
[7] = integrin inhibitors, 6 h to 72 h

Molecule | MCP-1 level in HUVEC supernatants (MCP-1) | phosphorylation of MAPK (ERK1/2) | ADAMTS1 protein level in HUVEC supernatants (ADAMTS1) | STC-1 protein level in HUVEC supernatants (STC-1; [6]) | IL-8 level in HUVEC supernatants (IL-8; [7]) | Activin A level in HUVEC supernatants (activin A) | PDGF-BB level in HUVEC supernatants (PDGF-BB) | EDN1 level in HUVEC supernatants (EDN1; [7]) | phosphorylation of FAK (FAK) | further results
CC(C)[C@H]1C(=O)N[C@@H](CCCN=C(N)N)C(=O)NCC(=O)N[C@@H](CC(=O)O)C(=O)N[C@H](Cc2ccccc2)C(=O)N1C [cilengitide, cyclo-(Arg-Gly-Asp-DPhe-NMeVal)] | down-regulated | inhibited | up-regulated | up-regulated | down-regulation | down-regulated | down-regulated | down-regulated | inhibited | Genes down-regulated in response to treatment (RNA level) (HUVEC): INHBA, EDN1, FST, DKK4, BMP4, MCP1, HHIP, NTN4, PHLDB2, PVR, CYR61, AUTS2, MERTK, FSTL3, APLN, PTX3, ANGPTL4, CTGF, SPOCK, IL8, NRG1, DKK3, CD44, BCHE, BDNF, FBXO4, EFEMP1, STC2; Genes up-regulated in response to treatment (RNA level) (HUVEC): ADAMTS 9, DAF, STC1, ADAMTS1, LAMAS, TCN2, SRPX, ADAM15, GUSB, HYAL2, PLAUR, CD40, NOTCH1, ENPP4; activation of ERK1/2 (ratio of phosphorylated to total) (ERK1/2; [5]): blocked activation; activation of FAK (ratio of phosphorylated to total) (FAK; [5]): blocked activation
CNC(=O)c1cc(Oc2ccc(NC(=O)Nc3ccc(Cl)c(C(F)(F)F)c3)cc2)ccn1 [Sorafenib] |  |  |  |  |  |  |  |  |  | additional patients who experienced tumor shrinkage [1]: 9%; patients who experienced stable disease for at least 4 months [1]: 43%; STC-1 protein level in HUVEC supernatants (STC-1; kinase inhibitors, 6 h to 48 h): down-regulated; IL-8 level in HUVEC supernatants (IL-8; kinase inhibitors, 6 h to 48 h): reduced protein levels; tumor angiogenesis, as measured by anti-CD31 immunostaining [2]: significant inhibition of tumor angiogenesis; side effect: diarrhea [3]: 33%; side effect: fatigue [3]: 26%; side effect: hand-foot skin reactions [3]: 27%; side effect: hypertension [3]: 11%; side effect: rash [3]: 34%; EDN1 level in HUVEC supernatants (EDN1; kinase inhibitors, 6 h to 48 h): up-regulated
B1 | down-regulated | inhibited | up-regulated | up-regulated | up-regulated | down-regulated | down-regulated | down-regulated | inhibited | plasma CRP (CRP): up-regulated; plasma IL-6 (IL-6): up-regulated; angiogenesis (hemoglobin content in the matrigel plugs) [4]: blocked the formation of new blood vessel at all doses
